Data reported in ChEMBL document CHEMBL3390836, “Mannich- and LedererManasse-based analogues of the natural product S-(+)-curcuphenol as cancer proliferation and migration inhibitors” (Medchemcomm, 2012).

How the values were obtained:
Format in all cases: functional
T47D = test: Cytotoxicity against human T47D cells assessed as cell growth at 10 uM after 48 hrs by SRB assay relative to control; details: read-out: Activity
MDA-MB-231 = test: Cytotoxicity against human MDA-MB-231 cells assessed as cell growth at 10 uM after 48 hrs by SRB assay relative to control; details: MDA-MB-231, 48 h, read-out: Activity
TK-10 = test: Cytotoxicity against human TK10 cells assessed as cell growth at 10 uM after 48 hrs by SRB assay relative to control; details: TK-10, 48 h, read-out: Activity
ACHN = test: Cytotoxicity against human ACHN cells assessed as cell growth at 10 uM after 48 hrs by SRB assay relative to control; details: read-out: Activity
A498 = test: Cytotoxicity against human A498 cells assessed as cell growth at 10 uM after 48 hrs by SRB assay relative to control; details: A498, 48 h, read-out: Activity
[1] = Cytotoxicity against human SKOV3 cells assessed as cell growth at 10 uM after 48 hrs by SRB assay relative to control; details: SK-OV-3, 48 h, read-out: Activity
[2] = Cytotoxicity against human OVCAR8 cells assessed as cell growth at 10 uM after 48 hrs by SRB assay relative to control; details: OVCAR-8, 48 h, read-out: Activity
[3] = Cytotoxicity against human OVCAR5 cells assessed as cell growth at 10 uM after 48 hrs by SRB assay relative to control; details: OVCAR-5, 48 h, read-out: Activity
SR = test: Cytotoxicity against human SR cells assessed as cell growth at 10 uM after 48 hrs by SRB assay relative to control; details: read-out: Activity
DU-145 = test: Cytotoxicity against human DU145 cells assessed as cell growth at 10 uM after 48 hrs by SRB assay relative to control; details: DU-145, 48 h, read-out: Activity
SF-268 = test: Cytotoxicity against human SF268 cells assessed as cell growth at 10 uM after 48 hrs by SRB assay relative to control; details: SF-268, 48 h, read-out: Activity
[4] = Cytotoxicity against human OVCAR3 cells assessed as cell growth at 10 uM after 48 hrs by SRB assay relative to control; details: OVCAR-3, 48 h, read-out: Activity
[5] = Cytotoxicity against human UACC257 cells assessed as cell growth at 10 uM after 48 hrs by SRB assay relative to control; details: UACC-257, 48 h, read-out: Activity
Malme-3M = test: Cytotoxicity against human MALME-3M cells assessed as cell growth at 10 uM after 48 hrs by SRB assay relative to control; details: read-out: Activity
LOX IMVI = test: Cytotoxicity against human LOXIMVI cells assessed as cell growth at 10 uM after 48 hrs by SRB assay relative to control; details: read-out: Activity
SNB-75 = test: Cytotoxicity against human SNB75 cells assessed as cell growth at 10 uM after 48 hrs by SRB assay relative to control; details: SNB-75, 48 h, read-out: Activity
HT-29 = test: Cytotoxicity against human HT-29 cells assessed as cell growth at 10 uM after 48 hrs by SRB assay relative to control; details: HT-29, 48 h, read-out: Activity
[6] = Cytotoxicity against human HCT15 cells assessed as cell growth at 10 uM after 48 hrs by SRB assay relative to control; details: HCT-15, 48 h, read-out: Activity
[7] = Cytotoxicity against human HCT116 cells assessed as cell growth at 10 uM after 48 hrs by SRB assay relative to control; details: HCT-116, 48 h, read-out: Activity
COLO 205 = test: Cytotoxicity against human COLO205 cells assessed as cell growth at 10 uM after 48 hrs by SRB assay relative to control; details: COLO 205, 48 h, read-out: Activity
NCI-H522 = test: Cytotoxicity against human NCI-H522 cells assessed as cell growth at 10 uM after 48 hrs by SRB assay relative to control; details: NCI-H522, 48 h, read-out: Activity
NCI-H322M = test: Cytotoxicity against human NCI-H322M cells assessed as cell growth at 10 uM after 48 hrs by SRB assay relative to control; details: read-out: Activity
HOP-92 = test: Cytotoxicity against human HOP92 cells assessed as cell growth at 10 uM after 48 hrs by SRB assay relative to control; details: HOP-92, 48 h, read-out: Activity
A549 = test: Cytotoxicity against human A549 cells assessed as cell growth at 10 uM after 48 hrs by SRB assay relative to control; details: A549, 48 h, read-out: Activity
RPMI-8226 = test: Cytotoxicity against human RPMI8226 cells assessed as cell growth at 10 uM after 48 hrs by SRB assay relative to control; details: RPMI-8226, 48 h, read-out: Activity
MOLT-4 = test: Cytotoxicity against human MOLT4 cells assessed as cell growth at 10 uM after 48 hrs by SRB assay relative to control; details: MOLT-4, 48 h, read-out: Activity
HL-60(TB) = test: Cytotoxicity against human HL-60(TB) cells assessed as cell growth at 10 uM after 48 hrs by SRB assay relative to control; details: HL-60, 48 h, read-out: Activity
BT-549 = test: Cytotoxicity against human BT549 cells assessed as cell growth at 10 uM after 48 hrs by SRB assay relative to control; details: BT-549, 48 h, read-out: Activity

| SMILES | growth at 10 µM (T47D) | growth at 10 µM (MDA-MB-231) | growth at 10 µM (TK-10) | growth at 10 µM (ACHN) | growth at 10 µM (A498) | growth at 10 µM [1] | growth at 10 µM [2] | growth at 10 µM [3] | growth at 10 µM [4] | growth at 10 µM [5] | growth at 10 µM (LOX IMVI) | growth at 10 µM (SNB-75) | growth at 10 µM (HT-29) | growth at 10 µM [6] | growth at 10 µM [7] | growth at 10 µM (COLO 205) | growth at 10 µM (NCI-H522) | growth at 10 µM (NCI-H322M) | growth at 10 µM (A549) | growth at 10 µM (RPMI-8226) | further results |
| --- | --- | --- | --- | --- | --- | --- | --- | --- | --- | --- | --- | --- | --- | --- | --- | --- | --- | --- | --- | --- | --- |
| CC(C)=CCC[C@H](C)c1ccc(C)c2c1OCN(CCCCC(=O)O)C2 | 95.4% | 91.8% | 86.1% | 98.8% | 99.4% | 104% | 88.8% | 90.8% | 112% | 89.5% | 90.2% | 91.8% | 83.3% | 92.3% | 88.6% | 110% | 44.8% | 112% | 101% | 92.3% | growth at 10 µM (SR): 105%; growth at 10 µM (DU-145): 118%; growth at 10 µM (SF-268): 100%; growth at 10 µM (Malme-3M): 126%; growth at 10 µM (HOP-92): 83.7%; growth at 10 µM (MOLT-4): 102%; growth at 10 µM (HL-60(TB)): 77.5% |
| CC(C)=CCC[C@H](C)c1ccc(C)c(CNCCCCCO)c1O | 99.1% | 96.5% | 92.2% | 97.7% | 82.6% | 99.4% | 98% | 99.4% | 84.2% | 93.2% | 83.1% | 77.2% | 55% | 86.1% | 78% | 105% | 89.2% | 104% | 91.5% | 85.3% | growth at 10 µM (BT-549): 108%; growth at 10 µM (SR): 84%; growth at 10 µM (DU-145): 108%; growth at 10 µM (SF-268): 87.8%; growth at 10 µM (Malme-3M): 106%; growth at 10 µM (MOLT-4): 83.1%; growth at 10 µM (HL-60(TB)): 87.7% |
| CC(C)=CCC[C@H](C)c1ccc(C)cc1O | 111% | 97.1% | 110% | 109% | 87.8% | 119% | 108% | 99% | 96.3% | 107% | 107% | 94.3% | 103% | 109% | 97.3% | 117% | 101% | 113% | 92.6% | 99.9% | growth at 10 µM (BT-549): 114%; growth at 10 µM (Malme-3M): 115%; growth at 10 µM (HOP-92): 85%; growth at 10 µM (MOLT-4): 102%; growth at 10 µM (HL-60(TB)): 85.7% |
| CC(C)=CCC[C@H](C)c1ccc(C)c(CNCCO)c1O | 90.2% | 86.1% | 81% | 97.9% | 66.5% | 88.9% | 89.6% | 87.6% | 95.7% | 81.7% | 88.7% | 77.7% | 90.6% | 98.6% | 93.4% | 105% | 81.4% | 100% | 94.4% | 86.9% | growth at 10 µM (SR): 75.7%; growth at 10 µM (DU-145): 98.3%; growth at 10 µM (SF-268): 97.8%; growth at 10 µM (MOLT-4): 87.5%; growth at 10 µM (HL-60(TB)): 92.7% |
| COc1ccc(CCNCc2c(C)ccc([C@@H](C)CCC=C(C)C)c2O)cc1OC | 69.8% | 87.7% | 90.1% | 87.1% | 53.4% | 94.8% | 80.4% | 96.6% | 90.1% | 78.7% | 73.7% | 66.1% | 48.9% | 92.2% | 58% | 67.9% | 75% | 99% | 85.8% | 55.8% | growth at 10 µM (SR): 53.4%; growth at 10 µM (DU-145): 83.4%; growth at 10 µM (SF-268): 90.7%; growth at 10 µM (MOLT-4): 68.2%; growth at 10 µM (HL-60(TB)): 85.6% |
| CC(C)=CCC[C@H](C)c1ccc(C)c(CO)c1O | 72.2% | 109% | 103% | 110% | 97.4% | 122% | 92.1% | 110% | 91.1% | 91.9% | 103% | 83.4% | 103% | 109% | 91.3% | 125% | 87.1% | 109% | 78.5% | 88.8% | growth at 10 µM (BT-549): 91.8%; growth at 10 µM (Malme-3M): 110%; growth at 10 µM (HOP-92): 65.2%; growth at 10 µM (MOLT-4): 91.4%; growth at 10 µM (HL-60(TB)): 95.7% |
| CC(C)=CCC[C@H](C)c1ccc(C)c(CNCCCCC(=O)O)c1O | 113% | 97.6% | 105% | 102% | 92.3% | 105% | 94.1% | 102% | 108% | 101% | 95% | 95.4% | 101% | 105% | 101% | 119% | 95.4% | 111% | 95.8% | 95.1% | growth at 10 µM (BT-549): 111%; growth at 10 µM (SR): 85%; growth at 10 µM (DU-145): 110%; growth at 10 µM (SF-268): 105%; growth at 10 µM (MOLT-4): 95.1%; growth at 10 µM (HL-60(TB)): 84.6% |
| CC(C)=CCC[C@H](C)c1ccc(C)c2c1OCN(CCO)C2 | 70% | 88.8% | 88.4% | 90.1% | 47.2% | 105% | 86.3% | 83.7% | 86.1% | 92.3% | 100% | 58.7% | 68.7% | 105% | 71.8% | 119% | 78.1% | 104% | 82.4% | 83.2% | growth at 10 µM (BT-549): 95.8%; growth at 10 µM (Malme-3M): 89.5%; growth at 10 µM (HOP-92): 4.21%; growth at 10 µM (MOLT-4): 101%; growth at 10 µM (HL-60(TB)): 90.8% |
